Where no end group is shown, it is not given here.
Columns and labels:
rats = assay: Oral glucose tolerance test in rats; assay type: in vivo, rat; conditions: ANTGIP 300 ng/kg i.p., glucose 1 g per kg by gavage
Method: Oral glucose tolerance tests were performed on rats injected intraperitoneally with ANTGIP (SEQ ID NO:8) (300 ng/kg) or 0.9% saline solution. After the intraperitoneal injection of 0.9% NaCl or ANTGIP (SEQ ID NO:8), an oral glucose tolerance test was performed. The test was done by administering a 40% glucose solution by oral gavage at a dose of 1 g per kg. The volume administered to each rat was approximately 0.5 ml. Blood was obtained at various time points for subsequent measurement of plasma insulin and glucose levels.

[1] = tested on: jejunal test segment of anesthetized rats; assay: Intestinal glucose absorption from perfused jejunal segment; assay type: in vivo, rat; conditions: ANTGIP 10 nmol/kg i.v. single injection, 30 minute perfusion
Method: Male Sprague-Dawley rats weighing about 200–250 g are fasted overnight and anesthetized using intraperitoneal urethane (about 1.25 g per kg body weight). After midline laparotomy, an about 30-cm segment of jejunum, starting at about 5 cm distal to the ligament of Treitz, is isolated and flushed with approximately 20 ml of about 0.9% NaCl. The jejunal test segments are each perfused twice, initially with control buffer and then once again with control buffer or with the test solution. The test solution consists of Kres-Ringer-bicarbonate buffer containing about 5 mmol/L [^14C]D-glucose, and ^3H-labeled polyethylene glycol is included in the luminal perfusate to correct for fluid movement. The test or control solution is perfused through the jejunal segment without recirculation at a flow rate of about 1.6 ml/min, using a Harvard PHD 2000 syringe pump (Harvard Apparatus, Millis, Mass.). The effluent from the luminal segment is collected at about 5-min intervals for about 30 min. After the initial period of perfusion, the luminal contents in the jejunum are flushed with about 20 ml of about 0.9% NaCl prior to the initiation of the second period of perfusion.
Data points are believed to represent the rate of glucose disappearance from the luminal perfusate corrected for fluid movement. Results are expressed as the mean±SE of five experiments. […]

rat GIP receptor [2] = molecular target: T1, rat GIP receptor (Rattus norvegicus, UniProt P43219); assay: Inhibition of GIP (1–42)-stimulated cAMP-dependent β-galactosidase production in LGIPR2 cells; assay type: cell-based
T1 construct: expressed in transfected cells; host or cells: L cells (LGIPR2), also carrying a VIP-promoter/lacZ cAMP reporter
T1 sequence (P43219 19-455): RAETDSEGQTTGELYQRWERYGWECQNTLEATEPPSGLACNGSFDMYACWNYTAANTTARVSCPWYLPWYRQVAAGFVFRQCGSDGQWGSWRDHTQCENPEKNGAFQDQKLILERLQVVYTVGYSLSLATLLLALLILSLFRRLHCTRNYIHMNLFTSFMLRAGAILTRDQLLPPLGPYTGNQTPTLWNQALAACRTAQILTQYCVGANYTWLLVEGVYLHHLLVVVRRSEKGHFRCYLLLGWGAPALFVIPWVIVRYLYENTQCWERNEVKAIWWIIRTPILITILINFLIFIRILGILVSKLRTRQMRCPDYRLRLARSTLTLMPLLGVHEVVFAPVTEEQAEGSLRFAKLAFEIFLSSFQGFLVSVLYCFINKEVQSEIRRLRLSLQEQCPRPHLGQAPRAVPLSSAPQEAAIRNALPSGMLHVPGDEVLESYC
Method: LGIPR2 cells are stably transfected with a cAMP-dependent promoter from the VIP gene fused to the bacterial lac Z gene. When intracellular cAMP increases within these cells, lac Z gene transcription is activated, resulting in the accumulation of its product, β-galactosidase. The measurement of β-galactosidase in this system provided a convenient, inexpensive, and nonradioactive method for detecting changes in the levels of intracellular cAMP.
LGIPR2 cells were grown in Dulbecco's Modified Eagle's Medium (DMEM) containing 4.5 g/L of glucose and 10% fetal calf serum. For each assay, 10^5 cells/well were seeded onto 24-well plates. After incubation overnight, peptides were added in various concentrations to the wells in the absence of 3-isobutyl-methylxanthine (IBMX) for 4 h, at which time maximal stimulation of β-galactosidase was determined. The medium was then removed and wells rinsed once with phosphate-buffered saline (PBS). The plates were then blotted briefly and frozen overnight at −70° C., and, after the addition of chlorophenol red-β-D-galactopyranoside, accumulated β-galactosidase was detected using a calorimetric assay, as described previously (Usdin, et al., 1993, Endocrinology, 133:2861–2870).
Values are expressed as the mean±SE of quadruplicate measurements.

conscious trained rats = assay: Postprandial plasma insulin, serum glucose and GLP-1 in trained conscious fed rats; assay type: in vivo, rat; conditions: for postprandial plasma insulin concentration: chow 30 min
Method: Postprandial plasma insulin and serum glucose levels were studied in conscious trained rats. […] To avoid such a response, rats were trained for 10 d before experimentation. They were fasted from 17:00 to 08:00, and 0.9% NaCl (0.3 ml) was injected subcutaneously at 08:00 before feeding. After the injection of 0.9% NaCl, animals were given rat chow for 30 min, after which it was removed. At the end of ten days, the rats were accustomed to the injection and ate quickly (consuming 4–6 g of rat chow within 30 min).
On the day of the experiment, after fasting from 17:00 the night before, trained rats were injected subcutaneously at 08:00 with 0.3 ml of either 0.9% NaCl or ANTGIP (SEQ ID NO:8) (100 nmol/kg). This dose was chosen to approximately the amount of peptide used in the anesthetized animal studies of Example 3. After injection, six of the fasted control rats were killed to obtain baseline serum glucose and insulin levels. ANTGIP (SEQ ID NO:8)- or 0.9% NaCl-treated rats (n=6 in each group) were exposed to chow for 30 min, after which food was withdrawn.

fasted anesthetized rats = assay: Intravenous infusion of peptides in fasting anesthetized rats, plasma insulin; assay type: in vivo, rat
rat GIP receptor [3] = molecular target: T1, rat GIP receptor; assay: cAMP-dependent β-galactosidase production in LGIPR2 cells (agonist activity); assay type: cell-based
Description: LGIPR2 cells are stably transfected with a cAMP-dependent promoter from the VIP gene fused to the bacterial lac Z gene. When intracellular cAMP increases within these cells, lac Z gene transcription is activated, resulting in the accumulation of its product, β-galactosidase. The measurement of β-galactosidase in this system provided a convenient, inexpensive, and nonradioactive method for detecting changes in the levels of intracellular cAMP. […] The medium was then removed and wells rinsed once with phosphate-buffered saline (PBS). The plates were then blotted briefly and frozen overnight at −70° C., and, after the addition of chlorophenol red-β-D-galactopyranoside, accumulated β-galactosidase was detected using a calorimetric assay, as described previously (Usdin, et al., 1993, Endocrinology, 133:2861–2870). […] Natl. Acad. Sci. USA, 90:1992–1996).

[4] = 20 min, ANTGIP 100 nmol/kg s.c.
[5] = 40 min, ANTGIP 100 nmol/kg s.c.

ISDYSIAMDKIRQQDFVNWLLAQK-NH2 [ANTGIP, GIP (7–30)-NH2]
plasma glucose after oral glucose versus control rats (rats): diminished at all time points
plasma insulin levels after oral glucose (rats): reduced plasma insulin levels
absorption of D-glucose from the jejunal test segment [1]: significantly reduce
IC50 (rat GIP receptor [2]): 100 nM
antagonism of the cAMP stimulatory effect of GIP (1–42) (rat GIP receptor [2]; 10^−8 M GIP (1–42) plus fragment at 10^−8 M or 10^−6 M, 4 h): attenuate the cAMP stimulatory effects
postprandial serum GLP-1 level (conscious trained rats; [4]): 290 ± 10 pg/mL
postprandial plasma insulin concentration (conscious trained rats; [4]): 25.3±4.7 μIU/ml
postprandial serum GLP-1 concentration (conscious trained rats; [5]): 330±20 pg/mgl
postprandial plasma insulin concentration (conscious trained rats; [5]): 27.1±2.6 μIU/ml
postprandial serum glucose concentration versus saline (conscious trained rats; ANTGIP 100 nmol/kg s.c.): similar
decrease in postprandial insulin release (conscious trained rats; chow-fed rats): 72%
change in the insulin response to GLP-1, glucose or arginine (fasted anesthetized rats; ANTGIP 100 nmol/kg concomitantly): No significant change
effect on the insulinotropic properties of GIP (fasted anesthetized rats; ANTGIP 100 nmol/kg concomitantly with GIP 1.5 nmol/kg): completely abolished
effect on insulin secretion, alone (fasted anesthetized rats; ANTGIP infusion alone, 30 min): had no effect on insulin secretion
stimulation of cAMP-dependent β-galactosidase production (versus GIP (1–42) / above control levels) (rat GIP receptor [3]; 10^−8 M peptide, 4 h): none
increase in cAMP-dependent β-galactosidase level (rat GIP receptor [3]; concentration as high as 10^−4 M): did not stimulate a detectable increase
